Where “and” joins values, the source holds several entries; their conditions need not be identical. Equal values may be shown once.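 Test compounds were applied to cells in 96-well plates for 48 hours at 5 doses. Abbreviation: GI50, concentration required for 50% inhibition of growth. TGI: total growth inhibition.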
Experiments:
Test in all cases: NCI-60 cell line screen, 48 h
[1] = system: LOX IMVI melanoma
[2] = system: HL-60(TB) leukemia
[3] = system: MALME-3M melanoma
[4] = system: EKVX NSCLC
[5] = system: RPMI-8226 leukemia
[6] = system: HOP-92 NSCLC
[7] = system: TK-10 renal
[8] = system: NCI-H522 lung
[9] = system: OVCAR-3 ovarian
[10] = system: M14 melanoma

SMILES	GI50 [1]	TGI [1]	GI50 [2]	TGI [2]	GI50 [3]	TGI [3]	GI50 [4]	TGI [4]	GI50 [5]	TGI [5]	GI50 [6]	TGI [6]	GI50 [7]	TGI [7]	GI50 [8]	TGI [8]	GI50 [9]	TGI [9]	GI50 [10]	TGI [10]
CCOC(=O)c1ccc2c(c1)[n+](=O)c(C(=O)c1ccc3ccccc3c1)c(C(F)(F)F)n2[O-]	0.175 µM	0.329 µM	0.98 µM	2.82 µM	1.68 µM	3.46 µM	1.56 µM	3.14 µM	1.1 µM	3.63 µM	1.2 µM	2.52 µM	1.89 µM	3.3 µM	0.458 µM	1.87 µM	0.749 µM	2.03 µM	1.44 µM	2.74 µM
C[As](C)Sc1ccnc(S[As](C)C)n1	2.76 µM	96.2 µM	1.13 µM	–	1.66 µM	11.3 µM	11.2 µM	35.8 µM	1.12 µM	4.61 µM	0.774 µM	5 µM	2.64 µM	14.3 µM	0.918 µM	27.8 µM	3.91 µM	22 µM	3.94 µM	> 44.9 µM
NC(=O)c1nnn(Cc2cc(Cl)c(C(=O)c3ccc(Cl)cc3)c(Cl)c2)c1N	> 9.09 µM	> 47.2 µM	> 9.09 µM	> 100 µM	> 9.09 µM	> 9.09 µM and 44.1 µM	> 9.09 µM	> 9.09 µM and 37.5 µM	> 9.09 µM	> 70.6 µM	> 9.09 µM	> 9.09 µM and 48.8 µM	> 9.09 µM	> 9.09 µM and 39 µM	> 9.09 µM	> 9.09 µM and 38.8 µM	> 9.09 µM	> 9.09 µM and 25 µM	> 9.09 µM	> 9.09 µM and 36.7 µM
CSC(=S)N/N=C/c1ccccc1	–	> 100 µM	–	> 100 µM	–	> 100 µM	–	> 100 µM	–	> 100 µM	–	> 100 µM	–	> 100 µM	–	> 100 µM	–	> 100 µM	–	> 100 µM
C=C1C(=O)O[C@H]2[C@H]1CC/C(C=Nc1ccc(C(F)(F)F)cc1N)=C\CC[C@@]1(C)O[C@@H]21	4.12 µM	17.4 µM	3.53 µM	14.3 µM	11.1 µM	26.2 µM	10.8 µM	23.4 µM	3.24 µM	10.1 µM	15.4 µM	29.7 µM	6.14 µM	17.4 µM	2.43 µM	7.8 µM	2.75 µM	11.3 µM	8.04 µM	22.3 µM
CCc1ccc(CCC(=O)Nc2ncc(Cc3cc(Cl)ccc3Cl)s2)o1	2.04 µM	> 50 µM	0.887 µM	2.11 µM	1.38 µM	> 50 µM	2.32 µM	> 50 µM	1.21 µM	6.92 µM	2.08 µM	> 50 µM	3.47 µM	> 50 µM	1.62 µM	> 50 µM	1.33 µM	4.76 µM	0.721 µM	> 50 µM
CCOCCc1c(O)nc(SC)[nH]c1=O	> 100 µM	> 100 µM	> 100 µM	> 100 µM	> 100 µM	> 100 µM	> 100 µM	> 100 µM	> 100 µM	> 100 µM	> 100 µM	> 100 µM	> 100 µM	> 100 µM	> 100 µM	> 100 µM	> 100 µM	> 100 µM	> 100 µM	> 100 µM
O=C(O)c1cc(N/C=C2\C(=O)c3ccccc3OC2O)ccc1O (stereo not drawn)	24.7 µg/mL	80.9 µg/mL	9.18 µg/mL	> 150 µg/mL	7.59 µg/mL	40.8 µg/mL	24.3 µg/mL	78.5 µg/mL	2.24 µg/mL	7.82 µg/mL	6.73 µg/mL	125 µg/mL	39.2 µg/mL	118 µg/mL	34.3 µg/mL	72.7 µg/mL	14.6 µg/mL	47.2 µg/mL	25.4 µg/mL	66.1 µg/mL
O=C(/C=C/C=C/c1ccccc1)c1ccc(Nc2nc(Nc3ccccc3)nc(Nc3ccccc3)n2)cc1	> 100 µM	> 100 µM	28.7 µM	> 100 µM	> 100 µM	> 100 µM	88.2 µM	> 100 µM	4.12 µM	> 100 µM	0.241 µM	17.7 µM	> 100 µM	> 100 µM	> 100 µM	> 100 µM	47.8 µM	> 100 µM	77.5 µM	> 100 µM
CS(=O)(=O)N1CCN(Cc2cc3nc(-c4cccc5[nH]ncc45)nc(N4CCOCC4)c3s2)CC1	0.456 µM and 0.32 µM	> 100 µM	0.121 µM and 0.052 µM	> 100 µM	0.311 µM and 0.128 µM	–	0.445 µM and 0.577 µM	> 100 µM	2 µM and 1.94 µM	> 22.2 µM	0.0232 µM and 0.0547 µM	0.197 µM and 0.508 µM	0.11 µM and 0.0949 µM	0.789 µM and 0.74 µM	0.602 µM and 0.37 µM	> 28 µM	0.245 µM and 0.194 µM	3.82 µM and > 5.15 µM	2.13 µM and 0.438 µM	> 100 µM
O=c1oc2c3ccc4ccccc4c3n(CCN3CCOCC3)c2c2ccccc12	–	> 100 µM	–	> 100 µM	–	> 100 µM	–	> 100 µM	–	> 100 µM	–	> 100 µM	–	> 100 µM	–	> 100 µM	–	> 100 µM	–	> 100 µM

Reference: PubChem BioAssay (NCI)
